In series [1] the test system is RPMI 8226S. Briefly: FMCA comparing J1 and AcJ1. The format is cell-based. Particulars: RPMI 8226S cell line. The protocol: (§1) The fluorometric microculture cytotoxicity assay (FMCA) (Larsson, R., et al- 1992: Int J Cancer, 50, 177-185) was used to evaluate the compounds. Briefly, 96-well microtiter plates (NUNC, Roskilde, Denmark) are prepared with 20 µl drug solution at ten times the desired concentration and stored for up to two months at -70°C. In general the substances are first dissolved in absolute or acidic ethanol to concentrations of 4.0 to 8.2 mM and further diluted with sterile water or sterile phosphate buffered saline (PBS, Sigma chemicals). All dilutions with water are made directly before the experiments to minimise the influence of mustard hydrolysis. […] At day zero of the experiment 180 µl of cell suspension of adequate concentration is added to the wells of the thawed plate, six wells serve as controls (cell suspension only) and six wells as blanks (cell medium only). After 72 hours incubation the cells are washed once with PBS, and 100 µl of fluorescein diacetate (10 µg/ml) in a physiological buffer is added. After another 45 min the generated fluorescence (ex 485 nm; em 528 nm) is measured in a 96-well scanning fluorometer (Fluoroscan II, Labsystems Oy, Helsinki, Finland). […]

In series [2] the test system is U-937. The series is described as follows: FMCA comparing J1 and AcJ1. The format is cell-based. The settings on record: U-937 cell line. The protocol:
as §1

Series [3] deals with 8226Dox40. The series is described as follows: cells. The format is cell-based, human. Particulars: 8226Dox40, doxorubicin resistance; 72 hours incubation; read-out: IC50.
The test system of series [4] is NCI-H611. Briefly: cells. The settings on record: NCI-H611, non-small cell lung cancer; read-out: IC50. It counts as cell-based.
Series [5] has as its system primary cultures of human tumor cells from patients (PHTC), Total. The series is described as follows: FMCA in PHTC cultures, Table 4, total. Particulars: 4 µM; n=19-31; 4320 min.
Series [6] relates to PHTC samples from 9 patients with hematological and 18 patients with solid tumours. Briefly: Circumvention of melphalan resistance: FMCA classification of PHTC samples as LDR, IDR, EDR. It counts as cell-based, human. Particulars: tested at 4 µM.
Series [7] deals with Breast cancer. The series is described as follows: Cytotoxic activity in different tumour models. The format is cell-based, human. The settings on record: Number 4.
Series [8] deals with H69AR. Briefly: cells. The format is cell-based, human. The settings on record: H69AR, doxorubicin resistance; 72 hours incubation; read-out: IC50.
The subject of series [9] is U-1810. Briefly: cells. The format is cell-based. Particulars: U-1810, non-small cell lung cancer; read-out: IC50.
Series [10] deals with U1690. The series is described as follows: cells. It counts as cell-based. Particulars: U1690, small cell lung cancer; read-out: IC50.
Series [11] concerns H69. Briefly: cells. It counts as cell-based, human. The settings on record: H69, small cell lung cancer; 72 hours incubation; read-out: IC50.
In series [12] the test system is NCI-H23. The series is described as follows: cells. It counts as cell-based. Particulars: NCI-H23, non-small cell lung cancer; read-out: IC50.
Series [13] relates to Adeno-carcinoma. Briefly: Cytotoxic activity in different tumour models. It counts as cell-based, human. Particulars: Number 5.
In series [14] the test system is U937vcr. Briefly: cells. It counts as cell-based, human. Particulars: U937vcr, vincristine resistance; 72 hours incubation; read-out: IC50.
Series [15] deals with U-1752. The series is described as follows: cells. The format is cell-based. Particulars: U-1752, non-small cell lung cancer; read-out: IC50.
Series [16] concerns U1906L. Briefly: cells. The format is cell-based. The settings on record: U1906L, small cell lung cancer; read-out: IC50.
The test system of series [17] is CEM/S. Briefly: cells. The format is cell-based, human. Particulars: CEM/S; 72 hours incubation; read-out: IC50.
Series [18] has as its system NCI-H125. The series is described as follows: cells. It counts as cell-based. The settings on record: NCI-H125, non-small cell lung cancer; read-out: IC50.
In series [19] the test system is Hematological tumours (PHTC). The series is described as follows: FMCA in PHTC cultures, Table 4, hematological. The settings on record: 4 µM; n=7-11; 4320 min.
Series [20] has as its system 8226LR5. The series is described as follows: cells. It counts as cell-based, human. Particulars: 8226LR5, melphalan resistance; 72 hours incubation; read-out: IC50.
In series [21] the test system is U1285. Briefly: cells. The settings on record: U1285, small cell lung cancer; read-out: IC50. The format is cell-based.
Series [22] relates to NSC Lung cancer. The series is described as follows: Cytotoxic activity in different tumour models. It counts as cell-based, human. Particulars: Number 8.
Series [23] relates to solid tumour fresh human tumour specimens (PHTC). The settings on record: 0.66 µM; n=22; 4320 min.
For series [24], the system named is 8226S. Briefly: cells. The format is cell-based, human. The settings on record: 8226S, myeloma; 72 hours incubation; read-out: IC50.
Series [25] deals with hematological fresh human tumour specimens (PHTC). The settings on record: 0.66 µM; n=42; 4320 min.
Series [26] relates to panel of ten human tumour cell lines. The series is described as follows: cells. It counts as cell-based. The settings on record: mean over the ten cell lines; read-out: MEAN IC50.
Series [27] has as its system U937gtb. The series is described as follows: cells. The format is cell-based, human. Particulars: U937gtb, lymphoma; 72 hours incubation; read-out: IC50.
The test system of series [28] is Corpus cancer. Briefly: Cytotoxic activity in different tumour models. The settings on record: Number 4. The format is cell-based, human.
Series [29] relates to ACHN. The series is described as follows: cells. The format is cell-based, human. Particulars: ACHN, primary resistant renal carcinoma; 72 hours incubation; read-out: IC50.
The test system of series [30] is CEM/R. The series is described as follows: cells. Particulars: CEM/R; 72 hours incubation; read-out: IC50. The format is cell-based, human.
Series [31] concerns U-1568. The series is described as follows: cells. Particulars: U-1568, non-small cell lung cancer; read-out: IC50. The format is cell-based.
The test system of series [32] is NCI-H157. The series is described as follows: cells. The settings on record: NCI-H157, non-small cell lung cancer; read-out: IC50. The format is cell-based.
The subject of series [33] is Solid tumours (PHTC). The series is described as follows: FMCA in PHTC cultures, Table 4, solid. The settings on record: 4 µM; n=12-20; 4320 min.
The test system of series [34] is Ovarian carcinoma. Briefly: Cytotoxic activity in different tumour models. It counts as cell-based, human. Particulars: Number 8.
Series [35] deals with fresh human tumour specimens. Briefly: FMCA cytotoxic activity in 27 fresh human tumour specimens (Figure 2). It counts as cell-based. Particulars: 27 human tumour samples, 14 hematological and 13 solid, comparative statement.
Series [36] concerns U-1906E. The series is described as follows: cells. It counts as cell-based. The settings on record: U-1906E, small cell lung cancer; read-out: IC50.

Regarding `CCOC(=O)[C@H](Cc1ccc(F)cc1)NC(=O)[C@H](Cc1ccc(N(CCCl)CCCl)cc1)NC(C)=O` [AcJ1, N-Acetyl-L-melphalanyl-L-p-fluorophenylalanine ethyl ester], the half-inhibitory concentration (IC50) (as a rule, the concentration that gives 50% inhibition) came to 2900 nM in series [1] and 610 nM in series [2].

Turning to `CCOC(=O)[C@H](Cc1ccc(F)cc1)NC(=O)[C@@H](N)Cc1ccc(N(CCCl)CCCl)cc1.Cl` [Example J1, L-Melphalanyl-L-p-fluorophenylalanine ethyl ester hydrochloride], the IC50 in series [3] was 1760 nM; in [4], 3170 nM; in [8], under 9000 nM; in [9], 10 nM; in [10] it was 1390 nM; in [11] it was 40 nM. Moreover, the IC50 in [12] was found to be 7600 nM; in [14] it was 110 nM; in series [15] it was 1300 nM; in series [16], 220 nM; in [17], 30 nM; in series [18] it was 9730 nM. For the same molecule, the IC50 in [20] is 2470 nM; in series [21], 40 nM; in series [24], 810 nM; in [26] it was 660 nM; in [27] it was 70 nM; in [29] it was 400 nM. In addition, the IC50 was determined as 10 nM in series [30], 1640 nM in series [31], 3900 nM in series [32] and 1170 nM in series [36]. Also, in series [5], the “Tumour cell survival index (%) Total” value is recorded as 40.9%. Also, the “Number of samples EDR” value in series [6] (Extreme drug resistance) turned out to be 1. Moreover, in [6] (Extreme drug resistance, percent of samples), the “Number of samples (%) EDR” value turned out to be 6%. The “Number of samples IDR” value in [6] (Intermediate drug resistance) came to 3. The “Number of samples (%) IDR” value in series [6] (Intermediate drug resistance, percent of samples) was 18%. Further, the “Number of samples LDR” value in series [6] (Low drug resistance) was 13. The “Number of samples (%) LDR” value in series [6] (Low drug resistance, percent of samples) was 76%. In addition, the “Median response at 4.0 µM >50% reduction in tumour cell survival” value was “Yes” in series [7]; “Yes” in [13]; “Yes” in [22]; “No” in [28]; “Yes” in series [34]. The “Tumour cell survival index (%) Hematological tumours” value in [19] is given as 6.6%. Moreover, in [23], the “Tumour cell survival index % Solid” value was determined as 46.9%. In addition, the “Tumour cell survival index % Hematological” value in series [25] amounted to 13.7%. The “Tumour cell survival index (%) Solid tumours” value in series [33] was determined as 56.5%. Further, the “IC50s (comparison)” value in series [35] is reported as “in all cases was more active than P2”.
